The values below come from US20080171720A1, “Nutritional Supplement For Hiv Patients” (N.V. Nutricia, priority 2005, published 2008).

The assay concerns intestinal tight junction permeability. The assay is described as follows: Inflammatory mediated intestinal tight junction permeability. The following applies: no method or data given.

As for `CCCCC/C=C\C/C=C\C/C=C\CCCCC(=O)O` [GLA, gamma linolenic acid], the “reduction of inflammatory mediated intestinal tight junction permeability” value is reported as “effectively reduce inflammatory mediated intestinal tight junction permeability”.
